Measured values taken from US20110269699A1, “CANCER THERAPY” (priority 2008, published 2011).
Values joined by “and” are separate entries in the source; they are usually repeats but may differ in a detail not shown here. Equal entries are not always repeated.

Columns and labels:
Eμ-myc lymphomas = assay: In vitro cell death analysis (propidium iodide staining, loss of MOMP); assay type: cell-based, mouse
Protocol: (§1) Three different primary Eμ-myc lymphomas overexpressing Bcl-2 and control vector-transduced Eμ-myc cells were tested for sensitivity to the histone deacetylase inhibitors (HDACi) oxamflatin and romidepsin.
(§2) The primary function of prosurvival Bcl-2 proteins is to inhibit the activity of Bak and Bax proteins and thereby protect the mitochondrial membrane from damage (Cory et al., Nat. Rev. Cancer 2:647-656, 2002). To determine if the induction of apoptosis mediated by romidepsin in 4242Eμ-myc/Bcl-2 and 229Eμ-myc/Bcl-2 lymphomas was via perturbation of the mitochondrial membrane or through some other mechanism, HDACi-induced mitochondrial outer membrane permeabilization (MOMP) was quantitated by staining with tetramethylrhodamine ethyl ester (Molecular Probes).
(§3) […] Viability of cells as measured by trypan blue exclusion assay, propidium iodide uptake, Annexin V staining, cell cycle analysis, or tetramethylrhodamine ethyl ester staining were done as described (Lindemann et al., Proc. Nat. Acad. Sci. USA 104:8071-8078, 2007).

Eμ-myc/Bcl-2 lymphomas = assay: as above; assay type: cell-based, mouse; settings: 24-h dose-response assay; Bcl-2 overexpressing
Protocol: as §1, §2, §3

[1] = test system: 226Eμ-myc/Bcl-2 lymphomas; assay: Cell cycle analysis of Eμ-myc/Bcl-2 cells treated with HDACi; assay type: cell-based, mouse; settings: 226/Bcl-2
Protocol: (§4) Next, the cell cycle profiles of Eμ-myc/Bcl-2 lymphomas treated with oxamflatin and romidepsin over 3 days were assessed.
as §3

[2] = test system: 4242Eμ-myc/Bcl-2 lymphomas; assay: as above; assay type: cell-based, mouse; settings: 4242/Bcl-2
Protocol: as §4, §3

[3] = test system: 4242Eμ-myc/Bcl-XL lymphomas; assay: In vitro cell death analysis of Bcl-XL overexpressing lymphomas; assay type: cell-based, mouse
Description: (§5) To determine if increased expression of Bcl-XL could confer resistance to romidepsin, 4242Eμ-myc/Bcl-XL lymphomas were produced and tested for sensitivity to HDACi.
as §3

[4] = test system: 229Eμ-myc/Bcl-2 lymphomas; assay: In vitro cell death analysis, time course; assay type: cell-based, mouse
Description: as §2, §4
(§6) Eμ-myc lymphoma cells (5×10^5/mL) were incubated in the presence of the indicated compounds for 20 h in 1 mL cell culture medium in 24-well plates (Greiner Bio-One). Viability of cells as measured by trypan blue exclusion assay, propidium iodide uptake, Annexin V staining, cell cycle analysis, or tetramethylrhodamine ethyl ester staining were done as described (Lindemann et al., Proc. Nat. Acad. Sci. USA 104:8071-8078, 2007).

4242Eμ-myc lymphomas = assay: In vitro cell death analysis (parental control of the Bcl-XL experiment); assay type: cell-based, mouse
Protocol: as §5, §6

[5] = test system: acetylated histones H3 and H4; assay: Western blot analysis of histone acetylation status; assay type: cell-based, mouse; settings: for histone acetylation: 3.0 nmol/L, 2, 8, 24 h
Protocol: Eμ-myc lymphoma cells were lysed in lysis buffer [0.15 mol/L NaCl, 10 mmol/L Tris-HCl (pH 7.4), 5 μmol/L EDTA, 1% Triton X-100] supplemented with protease inhibitors (leupeptin, pepstatin, and phenylmethylsulfonyl fluoride; Sigma-Aldrich) as described previously (Lindemann et al., Proc. Nat. Acad. Sci. USA 104:8071-8078, 2007). Proteins (30-50 μg) were separated on 10% or 15% SDS polyacrylamide gels electroblotted onto Immobilon-P […] membranes (Millipore). Membranes were incubated with the following antibodies: anti-mouse Bcl-2 (BD PharMingen), anti-mouse Bcl-XL (BD PharMingen), anti-mouse Bcl-w (Chemicon Australia), anti-mouse Mcl-1 (Rockland), anti-mouse A1 (Sapphire Biosciences), anti-Flag tag (Sigma-Aldrich), anti-acetylated histone H3 and antiacetylated histone H4 (Upstate Biosystems), anti-β actin (Sigma-Aldrich), and anti-tubulin (Sigma-Aldrich) overnight at 4° C. followed by subsequent incubation with horseradish peroxidase-conjugated secondary antibodies (DAKO) Immunoreactive bands were visualized by enhanced chemiluminescence (Amersham).

[6] = Maximum tolerated dose in lymphoma-bearing mice; settings: i.v. once every 4 days for a total of four injections
Protocol: For in vivo apoptosis assays, C57BL/6 mice were injected with Eμ-myc lymphomas (5×10^5 cells per animal) and after 10 to 15 days on which lymph nodes became well-palpable romidepsin (5.6 mg/kg) was administered i.v. After the indicated time points, mice were sacrificed and cells were harvested from brachial lymph nodes for fluorescence-activated cell sorting-based assays to measure apoptotic signaling (Lindemann et al., Proc. Nat. Acad. Sci. USA 104:8071-8078, 2007). To assess therapeutic efficacy of romidepsin, C57BL/6 mice were injected with Eμ-myc lymphomas of the indicated genotypes i.v. (5×10^5 cells per animal). Peripheral WBC counts were then monitored until they exceeded 13×10^3/μL (Sysmex Hematology Analyzer K-1000) and romidepsin was administered at 5.6 mg/kg i.v. once every 4 days for a total of four injections. […] Mice in the control cohort received the corresponding amount of vehicle. Cohorts consisted of 8 to 11 mice each, 2 to 3 independently derived lymphomas per genotype. Peripheral WBC counts and body weights were recorded weekly. On signs of major distress or when lymphomas were relapsing as indicated by enlarged brachioaxial lymph nodes, mice were euthanized and a necropsy was done. For analysis of therapeutic efficacy, tumor-induced mortality “events” were recorded. […]

[7] = increasing concentrations over 24 h

(1S,4S,10S,16E,21R)-7-[(2Z)-ethylidene]-4,21-diisopropyl-2-oxa-12,13-dithia-5,8,20,23-tetraazabicyclo[8.7.6]tricos-16-ene-3,6,9,19,22-pentanone [Romidepsin]
cell killing (outer cell membrane damage, loss of mitochondrial membrane potential) (Eμ-myc lymphomas; 24-h dose-response assay): could effectively kill
concentration of HDACi required to kill ˜70% of Eμ-myc lymphomas following 24-h treatment (Eμ-myc lymphomas; 24-h treatment): 3.0 nmol/L and 3 nmol/L
cell killing (outer cell membrane damage, loss of mitochondrial membrane potential) (Eμ-myc/Bcl-2 lymphomas): but not Eμ-myc/Bcl-2 lymphomas
% G1 ([1]; 24 hr): 48.6%
% G2/M ([1]; 24 hr): 26.6%
% S phase ([1]; 24 hr): 16.4%
% subG1 ([1]; 24 hr): 3.7%
% G1 ([1]; 48 hr): 52.3%
% G2/M ([1]; 48 hr): 27.1%
% S phase ([1]; 48 hr): 13.5%
% subG1 ([1]; 48 hr): 3.7%
% G1 ([1]; 72 hr): 78.3%
% G2/M ([1]; 72 hr): 8.7%
% S phase ([1]; 72 hr): 2.5%
% subG1 ([1]; 72 hr): 7.8%
% G1 ([2]; 24 hr): 66.3%
% G2/M ([2]; 24 hr): 11.4%
% S phase ([2]; 24 hr): 2.1%
% subG1 ([2]; 24 hr): 19.3%
% G1 ([2]; 48 hr): 53.2%
% G2/M ([2]; 48 hr): 8.5%
% S phase ([2]; 48 hr): 4.6%
% subG1 ([2]; 48 hr): 27.2%
% G1 ([2]; 72 hr): 34.8%
% G2/M ([2]; 72 hr): 7.1%
% S phase ([2]; 72 hr): 3.0%
% subG1 ([2]; 72 hr): 55.3%
plasma membrane integrity and mitochondrial function [3, 7]: unaffected
cell cycle analysis ([3]; increasing doses): arrested in the G1 phase
cell killing in time course ([4]; 3.0 nmol/L, up to 72 h): could kill
DNA fragmentation (sub-G1) indicative of apoptosis ([4]; over 3 days, data not shown): increase in the percentage of cells showing DNA fragmentation
plasma membrane integrity and mitochondrial function (4242Eμ-myc lymphomas; [7]): dose-dependent loss of plasma membrane integrity and mitochondrial function
cell cycle analysis: DNA fragmentation (4242Eμ-myc lymphomas; increasing doses): DNA fragmentation occurred
cell killing in time course (4242Eμ-myc lymphomas; parental Eμ-myc lymphomas, within the first 24 h, 3 nmol/L romidepsin or 0.1 μmol/L oxamflatin): effectively killed
histone acetylation ([5]; 226Eμ-myc/Bcl-2 lymphomas): equivalent increase in histone acetylation
acetylation of histones H3 and H4 ([5]; 4242Eμ-myc lymphomas, 3.0 nmol/L romidepsin, 0.1 mmol/L oxamflatin, 24-h time course): induced equivalent acetylation of histones H3 and H4
histone acetylation ([5]; 4242Eμ-myc/Bcl-2 lymphomas): equivalent increase in histone acetylation
maximum tolerated dose [6]: 5.6 mg/kg
